Measurements: US20260258064A1 (SIRONAX LTD., priority 2023, published 2026)

Target: T1, SARM1 (50-724) (Homo sapiens, UniProt Q6SZW1)
T1 construct: Purified SARM1 (50-724) with a final concentration of 2 nM was pre-incubated with a test compound
T1 sequence (Q6SZW1 50-724): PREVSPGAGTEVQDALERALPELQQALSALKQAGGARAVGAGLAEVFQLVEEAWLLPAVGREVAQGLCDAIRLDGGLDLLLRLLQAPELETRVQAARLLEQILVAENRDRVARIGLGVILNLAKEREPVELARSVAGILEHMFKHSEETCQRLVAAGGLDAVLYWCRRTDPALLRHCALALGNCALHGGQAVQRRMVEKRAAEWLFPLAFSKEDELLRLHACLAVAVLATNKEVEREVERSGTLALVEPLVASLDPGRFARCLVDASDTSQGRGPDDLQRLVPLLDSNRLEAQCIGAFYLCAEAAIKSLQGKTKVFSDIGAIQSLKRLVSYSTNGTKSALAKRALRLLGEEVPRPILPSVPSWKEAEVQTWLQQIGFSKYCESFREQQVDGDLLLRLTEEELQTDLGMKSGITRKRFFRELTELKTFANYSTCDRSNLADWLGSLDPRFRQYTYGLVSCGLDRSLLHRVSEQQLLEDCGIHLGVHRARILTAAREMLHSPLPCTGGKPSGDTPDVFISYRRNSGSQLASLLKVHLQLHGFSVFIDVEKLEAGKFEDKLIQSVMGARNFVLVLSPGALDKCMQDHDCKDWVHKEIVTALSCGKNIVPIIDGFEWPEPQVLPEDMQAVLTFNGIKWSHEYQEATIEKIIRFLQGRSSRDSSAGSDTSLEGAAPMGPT
Assay: SARM1 (50-724) enzymatic assay (LC-MS/MS)
Assay type: biochemical
Conditions: Purified SARM1 (50-724) 2 nM, NMN as activator, NAD+ as substrate, 1 h at room temperature, read-out: IC50 (SARM1 inhibitory activity)
In short: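 Reaction buffer was Dulbecco's PBS. Compound and 2 nM human SARM1 (50-724) were pre-incubated 15 min at room temperature, then […] NAD^+ and 200 µM NMN activator were added for 1 h at room temperature. Acetonitrile (70%) stop, LC-MS/MS read-out, IC50 values.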

IC50 | SMILES
≤ 100 nM | CC(CO)c1ccc2[nH]c(-c3nncn3-c3cccc(Cl)c3Cl)nc2c1 (stereo not shown) [Example 104, 2-(2-(4-(2,3-dichlorophenyl)-4H-1,2,4-triazol-3-yl)-1H-benzo[d]imidazol-5-yl)propan-1-ol]
≤ 100 nM | CC(c1cc(F)c2[nH]c(-c3nncn3-c3cnccc3C(F)(F)F)nc2c1)c1cc[nH]n1 (stereo not shown) [Compound 430, 5-(1-(1H-pyrazol-5-yl)ethyl)-7-fluoro-2-(4-(4-(trifluoromethyl)pyridin-3-yl)-4H-1,2,4-triazol-3-yl)-1H-benzo[d]imidazole]
100 to 500 nM | O=c1nc(-c2nc3cc(C(F)(F)F)ccc3[nH]2)c(-c2cccc(Cl)c2Cl)c[nH]1 [Example 54]
≤ 100 nM | OCC1(c2cc(F)c3[nH]c(-c4nncn4-c4cnccc4C(F)(F)F)nc3c2)CC1 [Compound 441, (1-(7-fluoro-2-(4-(4-(trifluoromethyl)pyridin-3-yl)-4H-1,2,4-triazol-3-yl)-1H-benzo[d]imidazol-5-yl)cyclopropyl)methanol]
≤ 100 nM | CC(c1cc(F)c2[nH]c(-c3nncn3-c3cnccc3C(F)(F)F)nc2c1)c1nccs1 (single isomer, unassigned) [Compound 434, 2-(1-(7-fluoro-2-(4-(4-(trifluoromethyl)pyridin-3-yl)-4H-1,2,4-triazol-3-yl)-1H-benzo[d]imidazol-5-yl)ethyl)thiazole]
100 to 500 nM | Clc1cccc(-n2cnnc2-c2nc3cc(-c4cncs4)ccc3[nH]2)c1Cl [Example 78, 5-(2-(4-(2,3-dichlorophenyl)-4H-1,2,4-triazol-3-yl)-1H-benzo[d]imidazol-5-yl)thiazole]
≤ 100 nM | N#Cc1c(-c2cnccc2-c2cccc(Cl)c2Cl)[nH]c2ccc(C(F)(F)F)cc12 [Example 47, 2-(4-(2,3-dichlorophenyl)pyridin-3-yl)-5-(trifluoromethyl)-1H-indole-3-carbonitrile]
100 to 500 nM | CSc1c(Br)ccc2[nH]c(-c3nncn3-c3cccc(Cl)c3Cl)nc12 [Example 72, 5-bromo-2-(4-(2,3-dichlorophenyl)-4H-1,2,4-triazol-3-yl)-4-(methylthio)-1H-benzo[d]imidazole]
500 to 1000 nM | FC(F)(F)c1ccc2[nH]c(-c3c[nH]nc3-c3cccc(Cl)c3Cl)nc2c1 [Example 61]
≤ 100 nM | CC(C)(O)c1ccc2[nH]c(-c3nncn3-c3cccc(Cl)c3Cl)nc2c1 [Example 96, 2-(2-(4-(2,3-dichlorophenyl)-4H-1,2,4-triazol-3-yl)-1H-benzo[d]imidazol-5-yl)propan-2-ol]
≤ 100 nM | FC(F)(F)c1ccc2[nH]c(-c3nncn3-c3nsc(Cl)c3Cl)nc2c1 [Example 106]
> 1000 nM | N#CCc1cccc2[nH]c(-c3nncn3-c3cnccc3C(F)(F)F)nc12 [Compound 437, 2-(2-(4-(4-(trifluoromethyl)pyridin-3-yl)-4H-1,2,4-triazol-3-yl)-1H-benzo[d]imidazol-4-yl)acetonitrile]
≤ 100 nM | Cc1cc(-c2ccc3[nH]c(-c4nncn4-c4cccc(Cl)c4Cl)nc3c2)[nH]n1 [Example 51, 2-(4-(2,3-dichlorophenyl)-4H-1,2,4-triazol-3-yl)-5-(3-methyl-1H-pyrazol-5-yl)-1H-benzo[d]imidazole]
≤ 100 nM | Cc1nnc(-c2nc3cc(C(F)(F)F)ccc3[nH]2)n1-c1cccc(Cl)c1Cl [Example 87, 2-(4-(2,3-dichlorophenyl)-5-methyl-4H-1,2,4-triazol-3-yl)-5-(trifluoromethyl)-1H-benzo[d]imidazole]
≤ 100 nM | CCOC(=O)C1(c2ccc3[nH]c(-c4nncn4-c4cccc(Cl)c4Cl)nc3c2)CCC1 [Example 129]

Second part, the compound before the results:

SMILES | IC50
CS(=O)(=O)CCc1nnc(-c2nc3cc(C(F)(F)F)ccc3[nH]2)n1-c1cccc(Cl)c1Cl [Compound 138, 2-(4-(2,3-dichlorophenyl)-5-(2-(methylsulfonyl)ethyl)-4H-1,2,4-triazol-3-yl)-5-(trifluoromethyl)-1H-benzo[d]imidazole] | ≤ 100 nM
FC(F)(F)c1ccncc1-n1cnnc1-c1nc2cc(C3CCCC3)ccc2[nH]1 [Compound 364, 5-cyclopentyl-2-(4-(4-(trifluoromethyl)pyridin-3-yl)-4H-1,2,4-triazol-3-yl)-1H-benzo[d]imidazole] | ≤ 100 nM
FC(F)(F)Oc1cnccc1-n1cnnc1-c1nc2cc(C(F)(F)F)ccc2[nH]1 [Compound 190] | ≤ 100 nM
FC(F)(F)Oc1ccc(Oc2ncco2)cc1-n1cnnc1-c1nc2cc(C(F)(F)F)ccc2[nH]1 [Compound 281, 2-(4-(trifluoromethoxy)-3-(3-(5-(trifluoromethyl)-1H-benzo[d]imidazol-2-yl)-4H-1,2,4-triazol-4-yl)phenoxy)oxazole] | ≤ 100 nM
Fc1cc(C2CC2)cc2nc(-c3nncn3-c3cnccc3C(F)(F)F)[nH]c12 [Compound 270, 5-cyclopropyl-7-fluoro-2-(4-(4-(trifluoromethyl)pyridin-3-yl)-4H-1,2,4-triazol-3-yl)-1H-benzo[d]imidazole] | ≤ 100 nM
FC(F)(F)c1ccc2[nH]c(C3=C(c4ccccc4Cl)CSC3)nc2c1 [Compound 335, 2-(4-(2-chlorophenyl)-2,5-dihydrothiophen-3-yl)-5-(trifluoromethyl)-1H-benzo[d]imidazole] | 500 to 1000 nM
Fc1cc(C2(F)CC2)cc2nc(-c3nncn3-c3cnccc3C(F)(F)F)[nH]c12 [Compound 285, 7-fluoro-5-(1-fluorocyclopropyl)-2-(4-(4-(trifluoromethyl)pyridin-3-yl)-4H-1,2,4-triazol-3-yl)-1H-benzo[d]imidazole] | ≤ 100 nM
Fc1cc(C2CC23COC3)cc2nc(-c3nncn3-c3cnccc3C(F)(F)F)[nH]c12 (stereo not shown) [Compound 413, 7-fluoro-5-(5-oxaspiro[2.3]hexan-2-yl)-2-[4-[4-(trifluoromethyl)-3-pyridyl]-1,2,4-triazol-3-yl]-1H-benzimidazole] | ≤ 100 nM
FC(F)(F)c1ccc2[nH]c(-c3nccnc3-c3cccc(Cl)c3Cl)nc2c1 [Compound 304, 2-(3-(2,3-dichlorophenyl)pyrazin-2-yl)-5-(trifluoromethyl)-1H-benzo[d]imidazole] | 500 to 1000 nM
FC(F)(F)c1ccc2[nH]c(-c3nncn3-c3cnccc3C(F)(F)F)cc2n1 [Compound 292, 5-(trifluoromethyl)-2-(4-(4-(trifluoromethyl)pyridin-3-yl)-4H-1,2,4-triazol-3-yl)-1H-pyrrolo[3,2-b]pyridine] | ≤ 100 nM
Cc1ccc2[nH]c(-n3c(-c4cccc(Cl)c4Cl)n[nH]c3=O)nc2c1 [Compound 31, 5-(2,3-dichlorophenyl)-4-(5-methyl-1H-benzo[d]imidazol-2-yl)-2,4-dihydro-3H-1,2,4-triazol-3-one] | > 1000 nM
FC(F)(F)c1ccc2[nH]c(-c3nncnc3-c3cccc(Cl)c3Cl)nc2c1 [Compound 307, 2-(5-(2,3-dichlorophenyl)-1,2,4-triazin-6-yl)-5-(trifluoromethyl)-1H-benzo[d]imidazole] | ≤ 100 nM
Cn1cc(OC(F)(F)F)c(-n2cnnc2-c2nc3cc(C(F)(F)F)cc(F)c3[nH]2)cc1=O [Compound 222, 4-(3-(7-fluoro-5-(trifluoromethyl)-1H-benzo[d]imidazol-2-yl)-4H-1,2,4-triazol-4-yl)-1-methyl-5-(trifluoromethoxy)pyridin-2(1H)-one] | ≤ 100 nM
CC(Oc1cc(F)c2[nH]c(-c3nncn3-c3cnccc3C(F)(F)F)nc2c1)C(F)(F)F (stereo not shown) [Compound 355, 7-fluoro-2-(4-(4-(trifluoromethyl)pyridin-3-yl)-4H-1,2,4-triazol-3-yl)-5-((1,1,1-trifluoropropan-2-yl)oxy)-1H-benzo[d]imidazole] | ≤ 100 nM
O=C1CCCN1c1c(-c2nncn2-c2cnccc2C(F)(F)F)[nH]c2ccc(C(F)(F)F)cc12 [Compound 367, 1-(5-(trifluoromethyl)-2-(4-(4-(trifluoromethyl)pyridin-3-yl)-4H-1,2,4-triazol-3-yl)-1H-indol-3-yl)pyrrolidin-2-one] | > 1000 nM
Cc1ccc2[nH]c(-c3cccn3C3CCCC3)nc2c1 [Compound 6, 2-(1-cyclopentylpyrrol-2-yl)-5-methyl-1H-benzimidazole] | 100 to 500 nM
FC(F)(F)c1ccc2[nH]c(-c3nncn3-c3cnccc3C(F)(F)F)c(C3CC3)c2c1 [Compound 366, 3-cyclopropyl-5-(trifluoromethyl)-2-(4-(4-(trifluoromethyl)pyridin-3-yl)-4H-1,2,4-triazol-3-yl)-1H-indole] | ≤ 100 nM
FC(F)(F)c1ccc2[nH]c([C@H]3COC[C@@H]3c3ccccc3)nc2c1 (single isomer, unassigned) [Compound 350] | > 1000 nM
[2H]c1cncc(-n2c([2H])nnc2-c2nc3c(F)c(C4([2H])CC4)ccc3[nH]2)c1C(F)(F)F [Compound 372, 5-(cyclopropyl-1-d)-4-fluoro-2-(4-(4-(trifluoromethyl)pyridin-3-yl-5-d)-4H-1,2,4-triazol-3-yl-5-d)-1H-benzo[d]imidazole] | ≤ 100 nM
